Paper PMC5218480 (PLoS ONE, 2017)

Test system: MV-4-11 cells
Experiment: Gene expression microarray analysis (Affymetrix PrimeView) and GSEA
Format: cell-based, human
Parameters: RFU PODN (11730768_x_at) / Fold change /veh PODN (11730768_x_at) / RFU LINC00158 (11744669_a_at) / Fold change /veh LINC00158 (11744669_a_at) / RFU DUSP10 (11751237_a_at) / Fold change /veh DUSP10 (11751237_a_at) / RFU ID3 (11757404_x_at) / Fold change /veh ID3 (11757404_x_at) / RFU PLEKHG5 (11737974_s_at) / Fold change /veh PLEKHG5 (11737974_s_at) / RFU LRRC4B (11730491_at) / Fold change /veh LRRC4B (11730491_at) / RFU GIMAP4 (11747438_a_at) / Fold change /veh GIMAP4 (11747438_a_at) / RFU KRT8 (11758183_x_at) / Fold change /veh KRT8 (11758183_x_at) / RFU CNN1 (11734310_a_at) / Fold change /veh CNN1 (11734310_a_at) / RFU VPS37D (11726825_at) / Fold change /veh VPS37D (11726825_at) / RFU C10orf10 (11716522_x_at) / Fold change /veh C10orf10 (11716522_x_at) / RFU KIR2DL2 /// KIR2DL4 /// KIR2DL5A /// KIR2DL5B /// KIR2DS1 /// KIR2DS2 /// KIR2DS3 /// KIR2DS4 /// KIR3DL3 /// KIR3DL3 /// KIR3DS1 (11738374_at) / Fold change /veh KIR2DL2 /// KIR2DL4 /// KIR2DL5A /// KIR2DL5B /// KIR2DS1 /// KIR2DS2 /// KIR2DS3 /// KIR2DS4 /// KIR3DL3 /// KIR3DL3 /// KIR3DS1 (11738374_at) / RFU C1QL1 (11718748_at) / Fold change /veh C1QL1 (11718748_at) / RFU TMPRSS4 (11747572_a_at) / Fold change /veh TMPRSS4 (11747572_a_at) / RFU HAMP (11756126_x_at) / Fold change /veh HAMP (11756126_x_at) / RFU RNFT2 (11725882_a_at) / Fold change /veh RNFT2 (11725882_a_at) / RFU NR4A2 (11747474_a_at) / Fold change /veh NR4A2 (11747474_a_at) / RFU ABCC12 (11746883_a_at) / Fold change /veh ABCC12 (11746883_a_at) / RFU TMEM136 (11760407_x_at) / Fold change /veh TMEM136 (11760407_x_at) / RFU CLDN22 /// WWC2 (11732394_at) / Fold change /veh CLDN22 /// WWC2 (11732394_at) / RFU HLA-DPB1 (11760878_x_at) / Fold change /veh HLA-DPB1 (11760878_x_at) / RFU SPINT1 (11716480_a_at) / Fold change /veh SPINT1 (11716480_a_at) / RFU GAP43 (11754022_s_at) / Fold change /veh GAP43 (11754022_s_at) / RFU A4GNT (11735810_at) / Fold change /veh A4GNT (11735810_at) / RFU PRB3 (11715151_x_at) / Fold change /veh PRB3 (11715151_x_at) / RFU TUBB4B (11761932_at) / Fold change /veh TUBB4B (11761932_at) / RFU CAPN14 (11732068_a_at) / Fold change /veh CAPN14 (11732068_a_at) / RFU TMCC2 (11721928_a_at) / Fold change /veh TMCC2 (11721928_a_at) / RFU IRGQ (11745062_a_at) / Fold change /veh IRGQ (11745062_a_at) / RFU FAM174B (11720279_a_at) / Fold change /veh FAM174B (11720279_a_at) / RFU TMPRSS4 (11748680_a_at) / Fold change /veh TMPRSS4 (11748680_a_at) / RFU FAM212B (11763350_a_at) / Fold change /veh FAM212B (11763350_a_at) / RFU PLEKHG5 (11743358_a_at) / Fold change /veh PLEKHG5 (11743358_a_at) / RFU ZSCAN30 (11745921_a_at) / Fold change /veh ZSCAN30 (11745921_a_at) / RFU CMKLR1 (11741424_a_at) / Fold change /veh CMKLR1 (11741424_a_at) / RFU LOC101060620 /// MAPK8IP1 (11723275_at) / Fold change /veh LOC101060620 /// MAPK8IP1 (11723275_at) / RFU SPTSSB (11747773_x_at) / Fold change /veh SPTSSB (11747773_x_at) / RFU PRSS12 (11739890_at) / Fold change /veh PRSS12 (11739890_at) / RFU BIN1 (11741810_x_at) / Fold change /veh BIN1 (11741810_x_at) / RFU WNT11 (11732464_a_at) / Fold change /veh WNT11 (11732464_a_at) / RFU C10orf10 (11716521_a_at) / Fold change /veh C10orf10 (11716521_a_at) / RFU C5orf56 (11738089_at) / Fold change /veh C5orf56 (11738089_at) / RFU CYB561 (11721691_x_at) / Fold change /veh CYB561 (11721691_x_at) / RFU ANKRD19P (11752326_a_at) / Fold change /veh ANKRD19P (11752326_a_at) / RFU OR2T12 /// OR2T33 /// OR2T8 (11738714_s_at) / Fold change /veh OR2T12 /// OR2T33 /// OR2T8 (11738714_s_at) / RFU VCAN (11748164_a_at) / Fold change /veh VCAN (11748164_a_at) / RFU JSRP1 (11732532_at) / Fold change /veh JSRP1 (11732532_at) / RFU KRTAP10-11 (11738290_x_at) / Fold change /veh KRTAP10-11 (11738290_x_at) / RFU MYO3A (11730013_a_at) / Fold change /veh MYO3A (11730013_a_at) / RFU EBF3 (11725865_a_at) / Fold change /veh EBF3 (11725865_a_at) / RFU CAMK2N1 (11719241_x_at) / Fold change /veh CAMK2N1 (11719241_x_at) / RFU C5orf56 (11738088_a_at) / Fold change /veh C5orf56 (11738088_a_at) / RFU OLFML3 (11715873_a_at) / Fold change /veh OLFML3 (11715873_a_at) / RFU LOC100653217 /// NTM (11731650_a_at) / Fold change /veh LOC100653217 /// NTM (11731650_a_at) / RFU MAPK11 (11762145_a_at) / Fold change /veh MAPK11 (11762145_a_at) / RFU FIZ1 (11724087_x_at) / Fold change /veh FIZ1 (11724087_x_at) / RFU OASL (11726364_x_at) / Fold change /veh OASL (11726364_x_at) / RFU SOX15 (11748057_x_at) / Fold change /veh SOX15 (11748057_x_at) / RFU CD79A (11719716_a_at) / Fold change /veh CD79A (11719716_a_at) / RFU HIST1H1D (11736915_at) / Fold change /veh HIST1H1D (11736915_at) / RFU CASKIN2 (11723855_a_at) / Fold change /veh CASKIN2 (11723855_a_at) / RFU LOC730098 (11760151_x_at) / Fold change /veh LOC730098 (11760151_x_at) / RFU OR4N2 (11742367_at) / Fold change /veh OR4N2 (11742367_at) / RFU PRRT2 (11749266_a_at) / Fold change /veh PRRT2 (11749266_a_at) / RFU SNX32 (11753110_a_at) / Fold change /veh SNX32 (11753110_a_at) / RFU CDHR5 (11726645_a_at) / Fold change /veh CDHR5 (11726645_a_at) / RFU RCAN1 (11760418_a_at) / Fold change /veh RCAN1 (11760418_a_at) / RFU FAM167A (11723789_a_at) / Fold change /veh FAM167A (11723789_a_at) / RFU FAM26E (11764081_at) / Fold change /veh FAM26E (11764081_at) / RFU ISYNA1 (11749810_s_at) / Fold change /veh ISYNA1 (11749810_s_at) / RFU ACY1 (11761880_at) / Fold change /veh ACY1 (11761880_at) / RFU 11764098_at / Fold change /veh 11764098_at / RFU SAMD14 (11745864_x_at) / Fold change /veh SAMD14 (11745864_x_at) / RFU NPB (11741838_a_at) / Fold change /veh NPB (11741838_a_at) / RFU TMPRSS6 (11731388_a_at) / Fold change /veh TMPRSS6 (11731388_a_at) / RFU KRTAP10-2 (11738614_at) / Fold change /veh KRTAP10-2 (11738614_at) / RFU ARHGAP8 /// PRR5-ARHGAP8 (11727945_x_at) / Fold change /veh ARHGAP8 /// PRR5-ARHGAP8 (11727945_x_at) / RFU KRTAP5-7 /// NADSYN1 (11734609_at) / Fold change /veh KRTAP5-7 /// NADSYN1 (11734609_at) / RFU RASL12 (11751679_a_at) / Fold change /veh RASL12 (11751679_a_at) / RFU CDKN2B (11736163_a_at) / Fold change /veh CDKN2B (11736163_a_at) / RFU PRF1 (11729649_at) / Fold change /veh PRF1 (11729649_at) / RFU, ZNF638 /// ZNF638-IT1 / Fold change vs veh, ZNF638 /// ZNF638-IT1 / RFU, PANK3 / Fold change vs veh, PANK3 / RFU, SH3YL1 / Fold change vs veh, SH3YL1 / RFU, ZEB2 / Fold change vs veh, ZEB2 / RFU, NRIP1 / Fold change vs veh, NRIP1 / RFU, PTTG1IP / Fold change vs veh, PTTG1IP / RFU, CAPN2 / Fold change vs veh, CAPN2 / RFU, MED14 / Fold change vs veh, MED14 / RFU, SNORA58 / Fold change vs veh, SNORA58 / RFU, C1orf63 / Fold change vs veh, C1orf63 / RFU, LRRFIP1 / Fold change vs veh, LRRFIP1 / RFU, NDUFAF7 / Fold change vs veh, NDUFAF7 / RFU, SLC12A2 / Fold change vs veh, SLC12A2 / RFU, IBTK / Fold change vs veh, IBTK / RFU, ESF1 / Fold change vs veh, ESF1 / Fold change vs veh, TMEM50B / RFU, TAOK1 / Fold change vs veh, TAOK1 / RFU, ACBD3 / Fold change vs veh, ACBD3 / RFU, TMA16 / Fold change vs veh, TMA16 / RFU, RWDD3 / Fold change vs veh, RWDD3 / RFU, BCAT1 / Fold change vs veh, BCAT1 / RFU, EDEM3 / Fold change vs veh, EDEM3 / RFU, TMEM33 / Fold change vs veh, TMEM33 / RFU, WDR75 / Fold change vs veh, WDR75 / RFU, AHCTF1 / Fold change vs veh, AHCTF1 / RFU, TFRC / Fold change vs veh, TFRC / RFU, ZDHHC17 / Fold change vs veh, ZDHHC17 / RFU, NOM1 / Fold change vs veh, NOM1 / RFU, ARL8B / Fold change vs veh, ARL8B / RFU, ZBTB11 / Fold change vs veh, ZBTB11 / RFU, TAMM41 / Fold change vs veh, TAMM41 / RFU, KIAA1704 /// LOC100996395 / Fold change vs veh, KIAA1704 /// LOC100996395 / RFU, ING1 / Fold change vs veh, ING1 / RFU, TRMT61B / Fold change vs veh, TRMT61B / RFU, FUBP3 / Fold change vs veh, FUBP3 / RFU, TP53 / Fold change vs veh, TP53 / RFU, TNKS2 / Fold change vs veh, TNKS2 / RFU, ZFP14 / Fold change vs veh, ZFP14 / RFU, ACTR2 / Fold change vs veh, ACTR2 / RFU, PPP3R1 / Fold change vs veh, PPP3R1 / RFU, PIK3R1 / Fold change vs veh, PIK3R1 / RFU, HNRNPA1 / Fold change vs veh, HNRNPA1 / RFU, RNF170 / Fold change vs veh, RNF170 / RFU, ZNF28 / Fold change vs veh, ZNF28 / RFU, RNGTT / Fold change vs veh, RNGTT / RFU, OGT / Fold change vs veh, OGT / RFU, BRD1 / Fold change vs veh, BRD1 / RFU, MARS / Fold change vs veh, MARS / RFU, ZNF655 / Fold change vs veh, ZNF655 / RFU, FAHD1 / Fold change vs veh, FAHD1 / RFU, BDP1 / Fold change vs veh, BDP1 / RFU, LRRCC1 / Fold change vs veh, LRRCC1 / RFU, ARID1A / Fold change vs veh, ARID1A / RFU, ZNF146 / Fold change vs veh, ZNF146 / RFU, ZNF330 / Fold change vs veh, ZNF330 / RFU, GPN3 / Fold change vs veh, GPN3 / RFU, C9orf123 / Fold change vs veh, C9orf123 / RFU, N4BP2L2 / Fold change vs veh, N4BP2L2 / RFU, ARFIP1 / Fold change vs veh, ARFIP1 / RFU, FAM179B / Fold change vs veh, FAM179B / RFU, BCL10 / Fold change vs veh, BCL10 / RFU, UHRF1BP1L / Fold change vs veh, UHRF1BP1L / RFU, BET1 / Fold change vs veh, BET1 / RFU, CNOT2 / Fold change vs veh, CNOT2 / RFU, ZNF268 / Fold change vs veh, ZNF268 / Fold change vs veh, ZNF507 / RFU, DGCR2 / Fold change vs veh, DGCR2 / RFU, WDSUB1 / Fold change vs veh, WDSUB1 / Fold change vs veh, HSP90B1 /// MIR3652 / RFU, ADSS / Fold change vs veh, ADSS / RFU, GK / Fold change vs veh, GK / RFU, ZNF148 / Fold change vs veh, ZNF148 / RFU, TAF9 / Fold change vs veh, TAF9 / RFU, SLC1A5 / Fold change vs veh, SLC1A5 / RFU, SLMO2 / Fold change vs veh, SLMO2 / RFU, ABCC4 / Fold change vs veh, ABCC4 / RFU, LOC101060439 /// RAP1B / Fold change vs veh, LOC101060439 /// RAP1B / RFU, RFX7 / Fold change vs veh, RFX7 / RFU, GTPBP10 / Fold change vs veh, GTPBP10 / RFU, CNEP1R1 / Fold change vs veh, CNEP1R1 / RFU, BIVM-ERCC5 /// ERCC5 / Fold change vs veh, BIVM-ERCC5 /// ERCC5 / RFU, ILF3 / Fold change vs veh, ILF3 / RFU 11762660_at / Fold change /veh 11762660_at / RFU VCAN (11757783_s_at) / Fold change /veh VCAN (11757783_s_at) / RFU DDX43 (11728927_at) / Fold change /veh DDX43 (11728927_at) / RFU KRT8 (11758188_x_at) / Fold change /veh KRT8 (11758188_x_at) / RFU NKD1 (11759106_at) / Fold change /veh NKD1 (11759106_at) / RFU SRD5A1 (11742802_a_at) / Fold change /veh SRD5A1 (11742802_a_at) / RFU TPSAB1 /// TPSB2 (11721975_s_at) / Fold change /veh TPSAB1 /// TPSB2 (11721975_s_at) / RFU GSTM3 (11746129_a_at) / Fold change /veh GSTM3 (11746129_a_at) / RFU IL23R (11737362_x_at) / Fold change /veh IL23R (11737362_x_at) / RFU TMEM51 (11727254_a_at) / Fold change /veh TMEM51 (11727254_a_at) / RFU PIWIL2 (11732686_x_at) / Fold change /veh PIWIL2 (11732686_x_at) / RFU ORM1 (11744905_x_at) / Fold change /veh ORM1 (11744905_x_at) / RFU CCDC152 (11743942_at) / Fold change /veh CCDC152 (11743942_at) / RFU ECM1 (11717891_a_at) / Fold change /veh ECM1 (11717891_a_at) / RFU IL23R (11748794_a_at) / Fold change /veh IL23R (11748794_a_at) / RFU TNFAIP8L3 (11732012_x_at) / Fold change /veh TNFAIP8L3 (11732012_x_at) / RFU MBOAT4 (11741988_at) / Fold change /veh MBOAT4 (11741988_at) / RFU 11764193_at / Fold change /veh 11764193_at / RFU TMEM53 (11763286_at) / Fold change /veh TMEM53 (11763286_at) / RFU MAGEB2 (11727129_at) / Fold change /veh MAGEB2 (11727129_at) / RFU TMEM200A (11744735_a_at) / Fold change /veh TMEM200A (11744735_a_at) / RFU CCDC152 (11751479_a_at) / Fold change /veh CCDC152 (11751479_a_at) / RFU FAM211A (11726209_a_at) / Fold change /veh FAM211A (11726209_a_at) / RFU RGS16 (11746705_a_at) / Fold change /veh RGS16 (11746705_a_at) / RFU VCAN (11755009_s_at) / Fold change /veh VCAN (11755009_s_at) / RFU RHOB (11743442_s_at) / Fold change /veh RHOB (11743442_s_at) / RFU RGS16 (11720943_a_at) / Fold change /veh RGS16 (11720943_a_at) / RFU RGS16 (11720944_at) / Fold change /veh RGS16 (11720944_at) / RFU, VPS4B / Fold change vs veh, VPS4B / RFU, CREB1 / Fold change vs veh, CREB1 / RFU, DNAJC13 / Fold change vs veh, DNAJC13 / RFU, GNAQ / Fold change vs veh, GNAQ / RFU, CDK5R1 / Fold change vs veh, CDK5R1 / RFU, ZRANB3 / Fold change vs veh, ZRANB3 / RFU, CUL4A / Fold change vs veh, CUL4A / RFU, CCNY / Fold change vs veh, CCNY / RFU, UFL1 / Fold change vs veh, UFL1 / RFU, COG3 / Fold change vs veh, COG3 / RFU, DIAPH2 / Fold change vs veh, DIAPH2 / RFU, SKA2 / Fold change vs veh, SKA2 / RFU, AFF3 / Fold change vs veh, AFF3 / RFU, LMF1 / Fold change vs veh, LMF1 / RFU, IPO11 / Fold change vs veh, IPO11 / RFU, DFFB / Fold change vs veh, DFFB / RFU, FOXP1 / Fold change vs veh, FOXP1 / RFU, CARD8 / Fold change vs veh, CARD8 / RFU, STRN3 / Fold change vs veh, STRN3 / RFU, ADK / Fold change vs veh, ADK / RFU, RASSF2 / Fold change vs veh, RASSF2 / RFU, WIPF1 / Fold change vs veh, WIPF1 / RFU, LARP1B / Fold change vs veh, LARP1B / RFU, RASA1 / Fold change vs veh, RASA1 / RFU, RB1 / Fold change vs veh, RB1 / RFU, PPFIA1 / Fold change vs veh, PPFIA1 / RFU, MAT2A / Fold change vs veh, MAT2A / RFU, CCT5 / Fold change vs veh, CCT5 / RFU, WDR92 / Fold change vs veh, WDR92 / RFU, CUX1 / Fold change vs veh, CUX1 / RFU, TTC7A / Fold change vs veh, TTC7A / RFU, TMEM135 / Fold change vs veh, TMEM135 / RFU, DEPTOR / Fold change vs veh, DEPTOR / RFU, CPM / Fold change vs veh, CPM / RFU, DNAJB6 / Fold change vs veh, DNAJB6 / RFU, CACNA2D3 / Fold change vs veh, CACNA2D3 / RFU, DTX4 / Fold change vs veh, DTX4 / RFU, TFCP2 / Fold change vs veh, TFCP2 / RFU, GMCL1 /// GMCL1P1 / Fold change vs veh, GMCL1 /// GMCL1P1 / RFU, AEBP2 / Fold change vs veh, AEBP2 / RFU, SNHG1 /// SNORD22 /// SNORD25 /// SNORD26 /// SNORD27 /// SNORD28 /// SNORD29 /// SNORD31 / Fold change vs veh, SNHG1 /// SNORD22 /// SNORD25 /// SNORD26 /// SNORD27 /// SNORD28 /// SNORD29 /// SNORD31 / Fold change (Aza/veh), C12orf56 (ProbeSet 11735607_a_at) / Fold change (ACY-1035/veh), C12orf56 (ProbeSet 11735607_a_at) / Fold change (Aza/veh), FGFR1OP (ProbeSet 11751329_s_at) / Fold change (ACY-1035/veh), FGFR1OP (ProbeSet 11751329_s_at) / Fold change (Aza/veh), VPS36 (ProbeSet 11739960_a_at) / Fold change (ACY-1035/veh), VPS36 (ProbeSet 11739960_a_at) / RFU SYPL1 (11715823_x_at) / Fold change /veh SYPL1 (11715823_x_at) / RFU IGFBP7 (11715501_s_at) / Fold change /veh IGFBP7 (11715501_s_at) / RFU REEP3 (11722064_at) / Fold change /veh REEP3 (11722064_at) / RFU IGLL1 (11728026_x_at) / Fold change /veh IGLL1 (11728026_x_at): dose or concentration left out as unconfirmed
Settings: ProbeSet 11730501_a_at; LIST D

## Nc1ncn([C@@H]2O[C@H](CO)[C@@H](O)[C@H]2O)c(=O)n1 [azacitidine]
  RFU, CACNA2D3: 122.12 RFU
